ChEMBL document CHEMBL1201862, “PubChem BioAssay data set” (2004)
Active and inactive are the calls of the source.

Columns and labels:
[1] = target: Cytochrome P450 2D6 (Homo sapiens, UniProt P10635);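 note: CYP2D6 member of a cytochrome P450 panel assay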
[2] = target: Cytochrome P450 2C19 (Homo sapiens, UniProt P33261); experiment: Cytochrome panel assay with activity outcomes. Panel member name: p450-cyp2c19 Compounds with AC50 equal or less than 10 uM are considered active; assay type: functional
Chain of Cytochrome P450 2C19 (P33261 whole entry): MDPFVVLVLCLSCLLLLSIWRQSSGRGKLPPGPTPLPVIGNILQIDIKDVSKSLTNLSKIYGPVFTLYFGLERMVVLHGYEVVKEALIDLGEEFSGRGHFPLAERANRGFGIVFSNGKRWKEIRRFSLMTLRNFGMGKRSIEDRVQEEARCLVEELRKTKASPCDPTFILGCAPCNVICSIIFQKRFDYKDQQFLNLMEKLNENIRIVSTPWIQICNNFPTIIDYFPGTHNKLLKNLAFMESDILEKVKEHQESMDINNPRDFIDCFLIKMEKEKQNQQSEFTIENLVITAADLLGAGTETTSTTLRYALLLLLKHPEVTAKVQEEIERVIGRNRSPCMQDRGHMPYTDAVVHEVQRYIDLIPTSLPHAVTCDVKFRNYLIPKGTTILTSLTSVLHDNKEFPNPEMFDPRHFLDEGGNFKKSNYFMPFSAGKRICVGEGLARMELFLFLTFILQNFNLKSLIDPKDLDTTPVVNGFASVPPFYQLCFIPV

[3] = target: T1, Cytochrome P450 1A2 (Homo sapiens, UniProt P05177);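 note: PubChem cytochrome P450 panel assay, CYP1A2 panel member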
T1 sequence (P05177 whole entry): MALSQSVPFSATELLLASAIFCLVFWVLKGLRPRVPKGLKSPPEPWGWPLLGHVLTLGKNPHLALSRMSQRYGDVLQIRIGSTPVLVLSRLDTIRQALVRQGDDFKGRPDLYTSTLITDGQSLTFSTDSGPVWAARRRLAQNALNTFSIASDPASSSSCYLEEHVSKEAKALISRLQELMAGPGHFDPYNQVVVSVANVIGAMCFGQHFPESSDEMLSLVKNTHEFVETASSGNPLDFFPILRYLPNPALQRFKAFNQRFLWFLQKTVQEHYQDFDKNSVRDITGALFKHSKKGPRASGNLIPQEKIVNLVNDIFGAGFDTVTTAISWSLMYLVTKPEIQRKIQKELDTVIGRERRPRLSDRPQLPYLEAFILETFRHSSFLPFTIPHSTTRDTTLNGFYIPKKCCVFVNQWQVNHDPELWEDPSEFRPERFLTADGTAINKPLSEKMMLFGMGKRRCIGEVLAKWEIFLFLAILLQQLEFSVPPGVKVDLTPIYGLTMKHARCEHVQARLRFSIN

[4] = target: Cytochrome P450 3A4 (Homo sapiens, UniProt P08684);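 note: CYP3A4 tested as one member of a cytochrome P450 panel screen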
Chain of Cytochrome P450 3A4 (P08684 whole entry): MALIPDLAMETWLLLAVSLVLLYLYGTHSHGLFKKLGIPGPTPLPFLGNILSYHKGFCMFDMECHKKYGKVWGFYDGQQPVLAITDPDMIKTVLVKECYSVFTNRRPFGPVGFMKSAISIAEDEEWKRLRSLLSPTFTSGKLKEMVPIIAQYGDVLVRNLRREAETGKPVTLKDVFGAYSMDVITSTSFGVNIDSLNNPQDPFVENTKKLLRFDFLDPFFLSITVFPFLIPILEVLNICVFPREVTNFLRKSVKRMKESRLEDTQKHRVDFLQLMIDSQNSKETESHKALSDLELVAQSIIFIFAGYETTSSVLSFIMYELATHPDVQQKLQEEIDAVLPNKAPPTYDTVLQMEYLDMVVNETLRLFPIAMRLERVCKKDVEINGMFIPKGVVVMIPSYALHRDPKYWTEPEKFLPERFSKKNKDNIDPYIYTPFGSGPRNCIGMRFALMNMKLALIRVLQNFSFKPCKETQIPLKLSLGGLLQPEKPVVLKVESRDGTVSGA

[5] = target: Cytochrome P450 2C9 (Homo sapiens, UniProt P11712)
Chain of Cytochrome P450 2C9 (P11712 whole entry): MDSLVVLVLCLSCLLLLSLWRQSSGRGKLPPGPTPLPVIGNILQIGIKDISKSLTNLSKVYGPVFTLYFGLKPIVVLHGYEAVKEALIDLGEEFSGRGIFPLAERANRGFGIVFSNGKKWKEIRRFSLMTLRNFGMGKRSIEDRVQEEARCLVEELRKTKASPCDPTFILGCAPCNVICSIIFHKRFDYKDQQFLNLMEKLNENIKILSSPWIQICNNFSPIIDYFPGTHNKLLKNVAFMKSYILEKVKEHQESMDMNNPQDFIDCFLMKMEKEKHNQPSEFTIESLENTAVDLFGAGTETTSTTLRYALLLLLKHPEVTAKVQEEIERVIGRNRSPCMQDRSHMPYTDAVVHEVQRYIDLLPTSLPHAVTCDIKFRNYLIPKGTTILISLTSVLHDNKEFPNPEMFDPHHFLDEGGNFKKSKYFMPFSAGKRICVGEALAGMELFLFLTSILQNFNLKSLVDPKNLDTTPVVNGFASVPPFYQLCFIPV

[6] = target: T2, Heat shock factor protein 1 (Mus musculus, UniProt P38532); experiment: decrease of HSF1-responsive luciferase luminescence – cell-based, NIH3T3, dose retest, confirmation (AID 2382); assay type: functional;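 note: NIH3T3 fibroblasts with HSF1-driven luciferase reporter stressed by proteasome inhibitor MG132; luminescence from HSF1-driven luciferase expression after 8 hours of MG132 stress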
T2 sequence (P38532 whole entry): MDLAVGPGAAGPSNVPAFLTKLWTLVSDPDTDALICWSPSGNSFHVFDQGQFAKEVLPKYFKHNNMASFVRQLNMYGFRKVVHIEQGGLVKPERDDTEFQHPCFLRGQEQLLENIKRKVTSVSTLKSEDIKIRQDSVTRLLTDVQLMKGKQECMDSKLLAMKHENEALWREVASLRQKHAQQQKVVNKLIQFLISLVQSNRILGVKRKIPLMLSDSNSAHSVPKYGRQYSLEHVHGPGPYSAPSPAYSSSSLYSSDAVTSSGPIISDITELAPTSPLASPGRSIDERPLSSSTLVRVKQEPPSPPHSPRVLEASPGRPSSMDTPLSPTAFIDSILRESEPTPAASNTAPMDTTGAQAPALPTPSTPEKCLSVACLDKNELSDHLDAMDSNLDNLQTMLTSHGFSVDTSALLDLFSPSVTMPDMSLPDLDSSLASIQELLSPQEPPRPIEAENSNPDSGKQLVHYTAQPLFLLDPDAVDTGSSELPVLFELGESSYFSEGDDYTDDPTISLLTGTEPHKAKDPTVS

Chain of Cytochrome P450 2D6 (P10635 whole entry): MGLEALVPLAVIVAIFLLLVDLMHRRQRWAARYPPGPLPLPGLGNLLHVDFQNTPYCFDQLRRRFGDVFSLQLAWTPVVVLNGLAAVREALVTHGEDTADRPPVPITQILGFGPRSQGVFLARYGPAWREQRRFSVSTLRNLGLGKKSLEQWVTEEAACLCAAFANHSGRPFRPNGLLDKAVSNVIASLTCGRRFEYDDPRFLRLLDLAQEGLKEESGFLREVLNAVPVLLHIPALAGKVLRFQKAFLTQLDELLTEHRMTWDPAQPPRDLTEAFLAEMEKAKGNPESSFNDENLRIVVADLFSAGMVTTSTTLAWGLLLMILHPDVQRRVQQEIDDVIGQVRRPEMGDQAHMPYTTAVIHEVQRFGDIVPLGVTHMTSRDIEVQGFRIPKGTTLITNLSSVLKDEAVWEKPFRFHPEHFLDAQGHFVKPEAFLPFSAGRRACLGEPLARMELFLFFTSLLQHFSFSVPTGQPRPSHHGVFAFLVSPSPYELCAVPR

`c1cncc(CNc2nc(-c3cccnc3)nc3ccccc23)c1` was tested, and the AC50 [1] was 20 µM (inconclusive), the AC50 ([2]; read-out: AC50) was 39.8 µM (inconclusive) and the AC50 [3] was 0.316 µM (active).
For `CCNc1ncc2nc(C)c(=O)n(C)c2n1`, the AC50 [1] was 39.8 µM (inconclusive).
In the case of `COc1ccc(/C=N\c2c(O)ccc3ccccc23)cc1OC`, the AC50 ([2]; read-out: AC50) is reported as 5.01 µM (inconclusive) and the AC50 [4] is reported as 6.31 µM (inconclusive).
With `O=C(C[C@@H](c1ccccc1)N1CCCCC1)c1ccccc1` the AC50 [5] was 3.16 µM (inconclusive).
In the case of `O=C(CC1CCCCC1)N1CCC(c2nc(-c3ccc(S(=O)(=O)N4CCCC4)cc3)no2)CC1`, the AC50 [4] is reported as 14.1 µM (inconclusive).
In the case of `COc1ccc(-c2nc3cnc(N4CCNCC4)nc3n(CCc3ccccc3)c2=O)cc1`, the AC50 [1] is reported as 15.8 µM (inconclusive), the AC50 ([2]; read-out: AC50) is reported as 39.8 µM (inconclusive) and the AC50 [4] is reported as 20 µM (inconclusive). The AC50 [3] was 15.8 µM (inconclusive).
`O=C(Nc1ccc(Cl)cc1)C1CCCN1C(=O)NCc1ccccc1` (centres undefined) was tested, and the EC50 [6] was > 195 µM (not active).
`C[C@@H](C(=O)O)[C@@H]1C[C@@]1(C)[C@@H](NC(=O)OCc1ccccc1)c1ccccc1` was tested, and the AC50 [4] was 15.8 µM (inconclusive).
`CCOC(=O)Nc1ccc2c(c1)OCO2` was tested, and the AC50 [1] was 35.5 µM (inconclusive) and the AC50 [5] was 39.8 µM (inconclusive).
For `COc1ccc(O[C@H]2C=C[C@@H](c3ccccc3)O[C@H]2COC(=O)CC/C(C)=N/OCC[C@@H]2C=C[C@H](OC(C)=O)[C@H](COC(C)=O)O2)cc1`, the AC50 [1] was 0.794 µM (inconclusive).
With `Cc1cc(=O)oc2c(C)c(OC(C)C(=O)NCCCN3CCOCC3)ccc12` (centres undefined) the EC50 [6] was > 195 µM (not active).
For `C[C@@H](C(=O)O)[C@H]1C[C@]1(C)[C@H](NC(=O)OCc1ccccc1)c1ccccc1`, the AC50 [4] was 12.6 µM (inconclusive).
In the case of `O=C(O)/C=C\C(=O)Nc1ccc2c(c1)-c1ccccc1C2`, the AC50 [4] is reported as 3.98 µM (inconclusive) and the AC50 [3] is reported as 1 µM (inconclusive).
For `COc1cc(/C=C/C(=O)Nc2ccccc2C(F)(F)F)cc(OC)c1OC`, the AC50 ([2]; read-out: AC50) was 17.8 µM (inconclusive), the AC50 [4] was 14.1 µM (inconclusive) and the AC50 [3] was 28.2 µM (inconclusive).
In the case of `CCc1ccc(N/C(SCc2ccccc2C)=C(/C#N)C(=O)NCc2ccco2)cc1`, the AC50 [1] is reported as 15.8 µM (inconclusive) and the AC50 [3] is reported as 7.08 µM (inconclusive).
`COC(=O)N1CCC2(CCN(C(=O)Nc3ccc(OC)cc3)CC2)CC1` was tested, and the AC50 [1] was 39.8 µM (inconclusive) and the AC50 [3] was 25.1 µM (inconclusive).
`O=C(NNS(=O)(=O)c1ccc(Cl)cc1)c1cnn(-c2ccccc2)c1-n1cccc1` was tested, and the AC50 [4] was 25.1 µM (inconclusive).
`CC(C)OC(=O)c1nnn(-c2nonc2N)c1CSc1ccccn1` was tested, and the AC50 [1] was 15.8 µM (inconclusive).
For `Cn1cccc1C(=O)N1CCC[C@@]2(CCN(C(=O)Nc3cccc(C#N)c3)C2)C1`, the AC50 [4] was 25.1 µM (inconclusive).
In the case of `c1ccc(CN2CCCC3(CCNCC3)C2)cc1`, the AC50 [1] is reported as 12.6 µM (inconclusive).
For `CC(C)c1ccc2oc(=O)cc(CN3CCCCC3)c2c1`, the EC50 [6] was > 195 µM (not active).
In the case of `CCCc1nc2sc3ccccc3c(=O)c2c(=O)n1CCOC`, the AC50 ([2]; read-out: AC50) is reported as 39.8 µM (inconclusive) and the AC50 [4] is reported as 35.5 µM (inconclusive).
With `CCc1nnc(NC(=O)CSc2nc(C)c3c(c2C#N)CCCC3)s1` the EC50 [6] was > 195 µM (not active).
For `O=C(Cn1nnc2ccccc21)N1CCCCC1`, the AC50 ([2]; read-out: AC50) was 22.4 µM (inconclusive) and the AC50 [5] was 0.00562 µM (inconclusive).
In the case of `CCN(CC)C[C@@H](O)c1ccc2ccc3ccccc3c2c1`, the AC50 [1] is reported as 3.16 µM (inconclusive).
In the case of `COc1cccc(-c2ccc3ncnc(NC4CCNCC4)c3c2)c1`, the AC50 [4] is reported as 31.6 µM (inconclusive).
For `Cc1ccc(-c2nc3ccccc3s2)cc1NC(=S)NC(=O)c1ccccc1`, the AC50 ([2]; read-out: AC50) was 22.4 µM (inconclusive), the AC50 [4] was 14.1 µM (inconclusive) and the AC50 [3] was 15.8 µM (inconclusive).
With `CCCCN(C(=O)NC(=O)Nc1ccccc1OCC)S(C)(=O)=O` the AC50 [5] was 8.91 µM (inconclusive).
For `Fc1ccc(-n2cc(CNCCc3ccccn3)c(-c3ccccc3Cl)n2)cc1`, the EC50 [6] was > 195 µM (not active).
In the case of `CC(C)C[C@H]1C(=O)N2CCC[C@@H]2[C@]2(O)O[C@](NC(=O)[C@@H]3C=C4c5cccc6[nH]c(Br)c(c56)C[C@H]4N(C)C3)(C(C)C)C(=O)N12`, the AC50 [5] is reported as 10 µM (inconclusive).
With `O=C(c1ccncc1)N1CCC2(CC1)CN(c1ccncc1)C2` the AC50 [5] was 31.6 µM (inconclusive).
With `CC(=O)OC[C@@H]1O[C@H](C/C=N\OC[C@@H](C)[C@H](OCc2ccccc2)C(C)C)C=C[C@@H]1OC(C)=O` the AC50 [5] was 6.31 µM (inconclusive).
For `COC(=O)[C@@]1(Cc2ccc(F)cc2)[C@H]2c3cc(C(=O)N(C)C)n(Cc4ccc(C(F)(F)F)nc4)c3C[C@H]2CN1C(=O)c1ccccc1`, the AC50 [1] was 20 µM (inconclusive).
In the case of `Cc1ccc2[nH]c(-c3ccc(NC(=O)Cc4cccs4)cc3)nc2c1`, the AC50 ([2]; read-out: AC50) is reported as 1 µM (inconclusive) and the AC50 [5] is reported as 0.708 µM (inconclusive).
For `COc1ccc(-c2nn(-c3ccccc3)cc2/C=C(\CC(=O)O)c2nc3ccccc3s2)cc1OC`, the EC50 [6] was > 195 µM (not active).
In the case of `CC(C)(C)N(NC(=O)c1ccccc1)C(=O)c1cccc(C(=O)N(NC(=O)c2ccccc2)C(C)(C)C)c1`, the AC50 [2] is reported as “inconclusive” and the AC50 [4] is reported as 3.98 µM (inconclusive).
In the case of `COCCn1c(=O)c(-c2ccc(OC)cc2)nc2cnc(OC)nc21`, the AC50 [1] is reported as 25.1 µM (inconclusive), the AC50 ([2]; read-out: AC50) is reported as 39.8 µM (inconclusive) and the AC50 [5] is reported as 39.8 µM (inconclusive).
In the case of `c1ccc(CNc2ncncc2-c2cccnc2)cc1`, the AC50 [1] is reported as 39.8 µM (inconclusive).
In the case of `O=C(CC(Nc1ccccc1Cl)C(=O)OCC(=O)c1cccs1)c1ccccc1` (centres undefined), the EC50 [6] is reported as 0.847 µM (active).
`O=C(CSc1nnc(COc2ccccc2)n1-c1ccccc1)c1ccccc1` was tested, and the AC50 [1] was 31.6 µM (inconclusive) and the AC50 [3] was 28.2 µM (inconclusive).
`O=C(Nc1ccc(F)cc1F)c1cc2nc3c(c(C(F)(F)F)n2n1)CCCC3` was tested, and the EC50 [6] was < 0.16 µM (active).
For `COc1cccc(Nc2ncc3nc(CCc4ccccc4)c(=O)n(C4CC4)c3n2)c1`, the AC50 [4] was 10 µM (inconclusive) and the AC50 [3] was 5.01 µM (inconclusive).
`CN1CCN(c2ncncc2-c2ccoc2)CC1` was tested, and the AC50 [1] was 31.6 µM (inconclusive), the AC50 [2] was “inconclusive” and the AC50 [3] was 31.6 µM (inconclusive).
For `O=C(c1csnn1)N1CCC2(CC1)CN(c1cccc(-c3ccccc3)c1)C2`, the AC50 [1] was 10 µM (inconclusive) and the AC50 [4] was 39.8 µM (inconclusive).
With `COC(=O)[C@@]1(Cc2ccc(F)cc2)[C@H]2c3cc(C(=O)N(C)C)n(Cc4ccc(C)o4)c3C[C@H]2CN1C(=O)c1ccccc1` the AC50 [1] was 39.8 µM (inconclusive).
`COc1ccc(CNc2nc(-c3c(C)noc3C)nc3ccccc23)c(OC)c1` was tested, and the AC50 [5] was 1 µM (inconclusive).
In the case of `O=C(CCN1C(=O)/C(=C/c2ccc(F)cc2)SC1=S)NCCCn1ccnc1`, the EC50 [6] is reported as > 195 µM (not active).
In the case of `CCN(Cc1ccccc1)S(=O)(=O)c1ccc(F)cc1`, the EC50 [6] is reported as > 195 µM (not active).
`C[C@@H](C(=O)NCc1nc2ccccc2[nH]1)[C@@H]1C[C@@]1(C)[C@@H](NC(=O)OCc1ccccc1)c1ccccc1` was tested, and the AC50 [1] was 15.8 µM (inconclusive) and the AC50 [3] was 12.6 µM (inconclusive).
In the case of `Cc1ccc(C(=O)CSc2nc(C)cc(=O)[nH]2)cc1`, the AC50 ([2]; read-out: AC50) is reported as 39.8 µM (inconclusive), the AC50 [5] is reported as 0.0282 µM (inconclusive) and the AC50 [3] is reported as 31.6 µM (inconclusive).
For `CC(NC(=O)Cn1cnc([N+](=O)[O-])n1)c1ccccc1` (centres undefined), the AC50 [5] was 35.5 µM (inconclusive).
In the case of `Cn1cc(/C=N/n2cnc3scc(-c4ccccc4)c3c2=O)c2ccccc21`, the AC50 [4] is reported as 3.98 µM (inconclusive).
With `O=C(CN1CCN(Cc2ccccc2)CC1)N/N=C\C=C/c1ccco1` the EC50 [6] was > 195 µM (not active).
With `Cc1oc(/C=N/NC(=O)CC2(C)OCCO2)cc1Br` the EC50 [6] was > 195 µM (not active).
For `O=C(N/N=C(\c1ccccc1)c1cccnc1)C(O)(c1ccccc1)c1ccccc1`, the AC50 [5] was 0.794 µM (inconclusive).
`CC(C)(C)NC(=O)C(=O)N/N=C/c1ccc(Br)cc1` was tested, and the AC50 [5] was 15.8 µM (inconclusive) and the AC50 [3] was 15.8 µM (inconclusive).
In the case of `Clc1ccc(/C=N/c2c(-c3ccc(Cl)cc3)nc3n2CCS3)cc1`, the AC50 [5] is reported as 10 µM (inconclusive).
With `CN(C)CCCn1cc(C2=C(c3c[nH]c4ccccc34)C(=O)NC2=O)c2ccccc21` [GF-109203] the AC50 [5] was 15.8 µM (inconclusive).
`CC(=O)NCCc1c(Cc2ccccc2)[nH]c2ccccc12` [LUZINDOLE] was tested, and the AC50 [5] was 15.8 µM (inconclusive).
`[H]/N=C(\N/C(=N/[H])Nc1ccc(Cl)cc1)NC(C)C` [PROGUANIL] was tested, and the AC50 [1] was 10 µM (inconclusive).
